Results from patent US20100093642A1, “NOVEL POLYPEPTIDES” (priority 2006, published 2010).
Converted amounts (≈) assume the structure as drawn. Residues, ends and D or L forms follow the SMILES beside them. No end group written: not given here.

Columns and labels:
E. coli (ATCC 25922) = format: cell-based, Escherichia coli
Procedure, shortened: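 Peptide fractions were incubated with actively growing bacteria in Mueller Hinton medium at a starting concentration of 3×10^4 cells per ml. Growth was monitored continuously in a Bioscreen C reader; polymyxin B served as reference.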

[1] = tested on: Acinetobacter baumannilii, K15-9; format: cell-based; details: clinical isolate; 37° C.; 3×10^6 cells per ml
Procedure: (§1) The antibacterial activities of the different peptides were determined by continuous monitoring of bacterial growth with a Bioscreen C microbiology reader (Labsystems Oy, Helsinki, Finland). The test was performed in 100-well flat-bottomed honeycomb plates, in which 50 μl of test fractions were incubated with 50 μl of a suspension of an actively growing culture of bacteria diluted in Mueller Hinton medium to a starting concentration of 3×10^4 cells per ml. The Gram-negative bacteria, Listonella (Vibrio) anguillarum, serotype O2 (FT 1801, a fish pathogenic strain), Pseudomonas aeruginosa and E. coli (ATCC 25922), and the Gram-positive bacteria, C. glutamicum (ATCC 13032) and S. aureus (ATCC 9144), were chosen as test bacteria. The growth chamber was maintained at either 20 or 37° C. during the incubation period. The absorbance was measured at 2 h intervals for 48 h by a turbidometric method with vertical light photometry and a wide band filter (420-580 nm), which is more insensitive to color change in the sample compared to single wavelength detection. Antibacterial activity was determined when the optical density (OD) of the growth control (bacteria plus water) reached an absorbance of 0.3-0.4. Fractions were regarded as active when the OD was less than 50% of the growth control. Polymyxin B (Sigma, St. Louis, Mo., USA), Lactoferricin B, Cecropin P1 and Hyalophora cecropia Cecropin B were used as reference.
(§2) The antimicrobial molecules were also tested against drug resistant clinical isolates, such as the commonly encountered multi-resistant human pathogen S. aureus (MRSA) K15-64 and the glycopeptide (vancomycin)-resistant Enterococccus faecium (GREF) K9-28. The non-clinical isolates Escherichia coli (ATCC 25922), Pseudomonas aeruginosa (ATCC 27853), Corynebacterium glutamicum (ATCC 13032), and Staphylococcus aureus (ATCC 9144) were also tested for comparison. Serial dilutions of synthetic peptides were made in double distilled water and tested according to the method described above. However, in these experiments the starting concentration of bacteria were 3×10^6 cells per ml and the temperature in the growth chamber was 37° C. Polymyxin B was used as positive control for the Gram-negative bacteria.

Escherichia coli, K15-58 = format: cell-based; details: clinical isolate; 37° C.; 3×10^6 cells per ml
Procedure: as §1, §2

[2] = tested on: Staphylococcus aureus (MRSA), K15-64; format: cell-based; details: multi-resistant clinical isolate; 37° C.; 3×10^6 cells per ml
Procedure: as §1, §2

Pseudomonas K15-60 = format: cell-based
Procedure: as §1, §2

[3] = tested on: Enterococcus faecium (GREF), K9-28; format: cell-based; details: vancomycin-resistant clinical isolate; 37° C.; 3×10^6 cells per ml
Procedure: as §1, §2

[4] = tested on: Staphylococcus aureus, ATCC 9144; format: cell-based; details: non-clinical isolate; 37° C.; 3×10^6 cells per ml
Procedure: as §1, §2

Salmonella K14-40 = format: cell-based; details: clinical isolate; 37° C.; 3×10^6 cells per ml
Procedure: as §1, §2

Klebsiella K15-72 = format: cell-based; details: clinical isolate; 37° C.; 3×10^6 cells per ml
Procedure: as §1, §2

[5] = tested on: Corynebacterium glutamicum, ATCC 13032; format: cell-based; details: non-clinical isolate; 37° C.; 3×10^6 cells per ml
Procedure: as §1, §2

[6] = tested on: Citrobacter freundii, K15-75; format: cell-based; details: clinical isolate; 37° C.; 3×10^6 cells per ml
Procedure: as §1, §2

Bacillus spp K13-61 = format: cell-based; details: clinical isolate; 37° C.; 3×10^6 cells per ml
Procedure: as §1, §2

Molecule	Minimal inhibitory concentration, E. coli (E. coli (ATCC 25922)) [µM]	Minimal inhibitory concentration, Acinetobacter baumannilii, K15-9 [1] [µM]	Minimal inhibitory concentration, Escherichia coli, K15-58 (Escherichia coli, K15-58) [µM]	Minimal inhibitory concentration, Staphylococcus aureus (MRSA), K15-64 [2] [µM]	Minimal inhibitory concentration, Pseudomonas K15-60 (Pseudomonas K15-60) [µM]	Minimal inhibitory concentration, Enterococcus faecium (GREF), K9-28 [3] [µM]	Minimal inhibitory concentration, Staphylococcus aureus, ATCC 9144 [4] [µM]	Minimal inhibitory concentration, Salmonella K14-40 (Salmonella K14-40) [µM]	Minimal inhibitory concentration, Klebsiella K15-72 (Klebsiella K15-72) [µM]	Minimal inhibitory concentration, Corynebacterium glutamicum, ATCC 13032 [5] [µM]	Minimal inhibitory concentration, Citrobacter freundii, K15-75 [6] [µM]	Minimal inhibitory concentration, Bacillus spp K13-61 (Bacillus spp K13-61) [µM]
CC[C@H](C)[C@H](NC(=O)CNC(=O)[C@H](CO)NC(=O)[C@H](CCCCN)NC(=O)[C@@H](NC(=O)[C@H](C)NC(=O)[C@H](Cc1c[nH]cn1)NC(=O)[C@H](CO)NC(=O)[C@@H](NC(=O)[C@H](CCCCN)NC(=O)[C@H](Cc1c[nH]cn1)NC(=O)[C@H](Cc1ccccc1)NC(=O)[C@@H](NC(=O)[C@H](CCCCN)NC(=O)[C@H](CCCCN)NC(=O)[C@H](Cc1ccccc1)NC(=O)C(Cc1c[nH]c2ccc(Br)cc12)NC(=O)CN)[C@@H](C)O)C(C)C)C(C)C)C(=O)N[C@@H](Cc1c[nH]cn1)C(=O)N[C@@H](C)C(=O)O (stereo partly shown) [P17 HC-Br (1-20)] (HELM PEPTIDE1{G.[O=C(C(Cc1c[nH]c2ccc(Br)cc12)N[*:1])[*:2]].F.K.K.T.F.H.K.V.S.H.A.V.K.S.G.I.H.A}$$$$V2.0; N-terminus and C-terminus assumed)	6.25 (≈ 14.7 µg/mL)	–	–	–	–	–	–	–	–	–	–	–
CC[C@H](C)[C@H](NC(=O)CNC(=O)[C@H](CO)NC(=O)[C@H](CCCCN)NC(=O)[C@@H](NC(=O)[C@H](C)NC(=O)[C@H](Cc1c[nH]cn1)NC(=O)[C@H](CO)NC(=O)[C@@H](NC(=O)[C@H](CCCCN)NC(=O)[C@H](Cc1c[nH]cn1)NC(=O)[C@H](Cc1ccccc1)NC(=O)[C@@H](NC(=O)[C@H](CCCCN)NC(=O)[C@H](CCCCN)NC(=O)[C@H](Cc1ccccc1)NC(=O)C(Cc1c[nH]c2ccc(Br)cc12)NC(=O)CN)[C@@H](C)O)C(C)C)C(C)C)C(=O)N[C@@H](Cc1c[nH]cn1)C(=O)N[C@@H](C)C(=O)NCC(=O)N[C@@H](CCC(N)=O)C(=O)N[C@@H](CCCNC(=N)N)C(=O)NCC(=O)N[C@@H](CS)C(=O)N[C@@H](CO)C(=O)N[C@@H](C)C(=O)N[C@@H](CC(C)C)C(=O)NCC(=O)N[C@@H](Cc1ccccc1)C(=O)O (stereo partly shown) [P17 HC-Br] (HELM PEPTIDE1{G.[O=C(C(Cc1c[nH]c2ccc(Br)cc12)N[*:1])[*:2]].F.K.K.T.F.H.K.V.S.H.A.V.K.S.G.I.H.A.G.Q.R.G.C.S.A.L.G.F}$$$$V2.0)	1.56 (≈ 5.18 µg/mL)	1.56 (≈ 5.18 µg/mL)	3.12 (≈ 10.4 µg/mL)	6.25 (≈ 20.8 µg/mL)	3.12 (≈ 10.4 µg/mL)	0.78 (≈ 2.59 µg/mL)	12.5 (≈ 41.5 µg/mL)	6.25 (≈ 20.8 µg/mL)	3.12 (≈ 10.4 µg/mL)	0.78 (≈ 2.59 µg/mL)	1.56 (≈ 5.18 µg/mL)	6.25 (≈ 20.8 µg/mL)
GWFKKTFHKVSHAVKSGIHA [P17 HC (1-20)]	6.25	6.25	6.25	>50	12.5	6.25	>50	50	>50	3.12	12.5	50
GWFKKTFHKVSHAVKSGIHAGQRGCSALGF [P17 HC]	1.56	3.12	1.56	6.25	3.12	0.39	12.5	6.25	3.12	0.78	0.78	6.25
